Molecular target: T1, linalool dehydratase (EC 4.2.1.127) (Castellaniella defragrans, UniProt E1XUJ2)
T1 construct: His tag; made in house; host or cells: E. coli BL21 (pARZ4 vector)
Assay: Enzyme activity of linalool dehydratase using 3-buten-2-ol as substrate (headspace GC-MS for butadiene)
Assay type: biochemical
Conditions: 11 mM 3-buten-2-ol, 25° C., purified his-tagged enzyme, butadiene in headspace by GC-MS
Excerpt: The his-tagged linalool dehydratase (EC 4.2.1.127) from Castellaniella defragrans was cloned into a pARZ4 vector and transformed into E. coli BL21. The resulting strain was cultivated and induced using […] (isopropylthio-β-galactoside) in a shake flask culture containing Luria Broth media and kanamycin selection pressure.
The cells from each of the induced shake flask cultures were harvested and pelleted by centrifugation. The cell pellet was resuspended and the cells were lysed. The cell debris was separated from the supernatant via centrifugation and filtered using a 0.2 μm filter. The enzyme was purified from the filtered supernatant using Ni-affinity chromatography and concentrated and buffer exchanged using a Vivaspin 15R Centrifugal Concentrator and Hi-trap Desalting column into 80 mM Tris buffer (pH=9).
Non-native enzyme activity assays were undertaken in a buffer containing 11 mM of 3-buten-2-ol at 25° C. The activity assays were undertaken in 2 mL septum-sealed vials, thereby allowing butadiene accumulation in the headspace. The reaction was initiated by adding 1 mL of purified enzyme to the assay buffer containing the substrate.
The headspace was sampled for butadiene analysis by GC-MS (gas chromatography-mass spectrometry). […] Also, the ion peak areas were above the limit of quantitation for the GC-MS.

T1 sequence (E1XUJ2 27-397): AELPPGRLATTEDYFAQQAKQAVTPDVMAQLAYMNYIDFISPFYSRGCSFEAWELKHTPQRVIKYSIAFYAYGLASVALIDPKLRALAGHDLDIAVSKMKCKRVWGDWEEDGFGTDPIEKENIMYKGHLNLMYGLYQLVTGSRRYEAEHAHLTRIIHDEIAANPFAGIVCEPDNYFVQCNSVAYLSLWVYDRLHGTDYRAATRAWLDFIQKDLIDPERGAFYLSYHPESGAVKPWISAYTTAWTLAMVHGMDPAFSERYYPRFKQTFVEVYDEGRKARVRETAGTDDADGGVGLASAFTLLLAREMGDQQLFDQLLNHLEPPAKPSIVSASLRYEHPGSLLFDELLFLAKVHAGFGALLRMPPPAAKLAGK

C=CC(C)O (stereo not shown) [3-buten-2-ol]
non-native enzyme activity: substrate acceptance, synthesis of butadiene: accepts 3-buten-2-ol as a substrate
